According to patent publication US20120053053A1, “PYRIMIDINE DERIVATIVES AND THEIR USE AS HERBICIDES” (SYNGENTA CROP PROTECTION, LLC, priority 2009, published 2012):

What was measured:
Assay type in all cases: in vivo
Setaria faberi (SETFA) [1] = test: Pre-emergence biological efficacy (percentage damage); conditions: dose 1,000 g/ha, evaluated after 13 days, 100=total damage, 0=no damage; for pest or weed control at 1000 g/ha: Setaria faberi, 312 h
Summary of the method: (§1)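 In this pre-emergence test, pots of standard soil sown with seed are treated after one day of glasshouse cultivation using compound formulated in acetone/water (50:50) containing 0.5% Tween 20, dosed at 250 or 1000 g/ha. Growth continues at 24/16 °C day/night with 14 h light and 65% humidity, and damage is rated after 13 days.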

[2] = test system: Alopecurus myosuroides (ALOMY); test: as above; conditions: dose 1,000 g/ha, evaluated after 13 days, 100=total damage, 0=no damage; for pest or weed control at 1000 g/ha: Alopecurus myosuroides, 312 h
Summary of the method: as §1

[3] = test system: Ipomea hederaceae (IPOHE); test: as above; conditions: dose 1,000 g/ha, evaluated after 13 days, 100=total damage, 0=no damage; for pest or weed control at 1000 g/ha: Ipomoea hederacea, 312 h
Summary of the method: as §1

[4] = test system: Amaranthus retoflexus (AMARE); test: as above; conditions: dose 1,000 g/ha, evaluated after 13 days, 100=total damage, 0=no damage; for pest or weed control at 1000 g/ha: Amaranthus retroflexus, 312 h
Summary of the method: as §1

Solanum nigrum (SOLNI) [5] = test: as above; conditions: dose 1,000 g/ha, evaluated after 13 days, 100=total damage, 0=no damage; for pest or weed control at 1000 g/ha: Solanum nigrum, 312 h
Summary of the method: as §1

[6] = test system: Echinochloa crus-galli (ECHCG); test: as above; conditions: dose 1,000 g/ha, evaluated after 13 days, 100=total damage, 0=no damage; for pest or weed control at 1000 g/ha: Echinochloa crus-galli, 312 h
Summary of the method: as §1

Setaria faberi (SETFA) [7] = test: Post-emergence biological efficacy (percentage damage); conditions: dose 1,000 g/ha, evaluated after 13 days, 100=total damage, 0=no damage; for pest or weed control at 1000 g/ha: Setaria faberi, 312 h
Summary of the method: (§2)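 Post-emergence spray, 250 or 1000 g/ha, acetone/water 50:50 + 0.5% Tween 20, on 8-day-old potted plants; glasshouse 24/16 °C, 14 h light, 65% RH, watered twice daily; % damage read at 13 d.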

[8] = test system: Alopecurus myosuroides (ALOMY); test: as above; conditions: dose 1,000 g/ha, evaluated after 13 days, 100=total damage, 0=no damage; for pest or weed control at 1000 g/ha: Alopecurus myosuroides, 312 h
Summary of the method: as §2

[9] = test system: Ipomea hederaceae (IPOHE); test: as above; conditions: dose 1,000 g/ha, evaluated after 13 days, 100=total damage, 0=no damage; for pest or weed control at 1000 g/ha: Ipomoea hederacea, 312 h
Summary of the method: as §2

[10] = test system: Amaranthus retoflexus (AMARE); test: as above; conditions: dose 1,000 g/ha, evaluated after 13 days, 100=total damage, 0=no damage; for pest or weed control at 1000 g/ha: Amaranthus retroflexus, 312 h
Summary of the method: as §2

Solanum nigrum (SOLNI) [11] = test: as above; conditions: dose 1,000 g/ha, evaluated after 13 days, 100=total damage, 0=no damage; for pest or weed control at 1000 g/ha: Solanum nigrum, 312 h
Summary of the method: as §2

[12] = test system: Echinochloa crus-galli (ECHCG); test: as above; conditions: dose 1,000 g/ha, evaluated after 13 days, 100=total damage, 0=no damage; for pest or weed control at 1000 g/ha: Echinochloa crus-galli, 312 h
Summary of the method: as §2

Row | SMILES | pest or weed control at 1000 g/ha (Setaria faberi (SETFA) [1]) | pest or weed control at 1000 g/ha [2] | pest or weed control at 1000 g/ha [3] | pest or weed control at 1000 g/ha [4] | pest or weed control at 1000 g/ha (Solanum nigrum (SOLNI) [5]) | pest or weed control at 1000 g/ha [6] | pest or weed control at 1000 g/ha (Setaria faberi (SETFA) [7]) | pest or weed control at 1000 g/ha [8] | pest or weed control at 1000 g/ha [9] | pest or weed control at 1000 g/ha [10] | pest or weed control at 1000 g/ha (Solanum nigrum (SOLNI) [11]) | pest or weed control at 1000 g/ha [12] | also measured
1 | C=C(OCC)c1ccc(-c2nc(N)c(C(C)=O)c(C(=O)OC)n2)c(F)c1OC [Compound 66-53, 4-amino-2-(4-[1-ethoxyethenyl]-2-fluoro-3-methoxy-phenyl)-6-methoxycarbonyl-5-methylcarbonyl-pyrimidine] | 0% | 0% | 30% | 10% | 20% | 0% | 10% | 0% | 30% | 20% | 60% | 0% | –
2 | C=Cc1c(N)nc(-c2ccc(Cl)c(N(C)C)c2F)nc1C(=O)OCCOCCCC [Compound 33-397] | 90% | 80% | 50% | 100% | 100% | 100% | 90% | 80% | 80% | 100% | 90% | 90% | –
3 | COC(=O)c1nc(C2CC2)nc(N(C)C)c1C [Compound 2-221, 2-Cyclopropyl-4-dimethylamino-6-methoxycarbonyl-5-methylpyrimidine] | 0% | 30% | 70% | 60% | 60% | 0% | 60% | 20% | 80% | 100% | 80% | 70% | –
4 | C=Cc1c(N)nc(-c2ccc(Cl)c(N(C)C)c2F)nc1C(=O)OC(C)c1ccccc1 (stereo not drawn) [Compound 33-394, 4-Amino-2-(4-chloro-3-dimethylamino-2-fluorophenyl)-5-ethenyl-6-(1-phenyl-ethoxy)carbonyl-pyrimidine] | 30% | 20% | 0% | 40% | 40% | 30% | 50% | 30% | 30% | 100% | 80% | 60% | –
5 | C=Cc1c(N)nc(-c2ccc(Cl)c(N(C)C)c2F)nc1C(=O)OCC(CC)CCCC (stereo not drawn) [Compound 33-393, 4-Amino-2-(4-chloro-3-dimethylamino-2-fluorophenyl)-5-ethenyl-6-(2-ethylhexyloxy) carbonyl-pyrimidine] | 0% | 0% | 0% | 20% | 20% | 0% | 0% | 0% | 70% | 70% | 70% | 20% | –
6 | Cc1c(Cl)nc(C2CC2)nc1OCC(=O)O [Compound 2-375, (4-chloro-2-cyclopropyl-5-methyl-pyrimidin-6-yloxy)-acetic acid] | 0% | 0% | 20% | 0% | 0% | 0% | 0% | 0% | 20% | 10% | 10% | 0% | –
7 | C=Cc1c(C(=O)OC)nc(C2CC2)nc1S(C)(=O)=O [Compound 2-402, 2-cyclopropyl-5-ethenyl-6-methoxycarbonyl-4-methylsulphonyl-pyrimidine] | 0% | 0% | 0% | 0% | 0% | 0% | 0% | 0% | 50% | 0% | 20% | 0% | –
8 | C/C=C\c1c(N)nc(C2CC2)nc1C(=O)OC [2-62 (Z)] | – | – | – | – | – | – | – | – | – | – | – | – | Percentage damage SETFA, pre-emergence (Setaria faberi (SETFA) [1]): 20%; Percentage damage ALOMY, pre-emergence [2]: 20%; Percentage damage IPOHE, pre-emergence [3]: 100%; Percentage damage AMARE, pre-emergence [4]: 90%; Percentage damage SOLNI, pre-emergence (Solanum nigrum (SOLNI) [5]): 100%; Percentage damage ECHCG, pre-emergence [6]: 10%; Percentage damage SETFA, post-emergence (Setaria faberi (SETFA) [7]): 30%; Percentage damage ALOMY, post-emergence [8]: 10%; Percentage damage IPOHE, post-emergence [9]: 100%; Percentage damage AMARE, post-emergence [10]: 70%; Percentage damage SOLNI, post-emergence (Solanum nigrum (SOLNI) [11]): 70%; Percentage damage ECHCG, post-emergence [12]: 10%
9 | C=Cc1c(N)nc(SC)nc1OCC(=O)OC [Compound 2-366, 4-amino-5-ethenyl-6-methoxycarbonylmethoxy-2-methylthio-pyrimidine] | 0% | 0% | 0% | 0% | 0% | 0% | 0% | 0% | 0% | 0% | 20% | 0% | –
10 | C=Cc1c(N)nc(-c2ccc(Cl)c(N(C)C)c2F)nc1C(=O)O [Compound 33-21, 4-Amino-2-(4-chloro-3-dimethylamino-2-fluorophenyl)-5-ethenylpyrimidine-6-carboxylic acid] | 100% | 90% | 80% | 100% | 100% | 100% | 100% | 90% | 70% | 100% | 90% | 100% | –
11 | C=Cc1c(N)nc(-c2ccc(Cl)cc2F)nc1C(=O)OC [Compound 15-61, 4-Amino-2-(4-chloro-2-fluorophenyl)-5-ethenyl-6-methoxycarbonyl-pyrimidine] | 70% | 80% | 100% | 100% | 100% | 70% | 70% | 90% | 80% | 100% | 100% | 70% | –
12 | C=C(C)c1c(N)nc(-c2ccc(Cl)c(OC)c2F)nc1C(=O)OC [Compound 27-63, 4-Amino-2-(4-chloro-2-fluoro-3-methoxyphenyl)-6-methoxycarbonyl-5-(prop-1-en-2-yl)-pyrimidine] | 50% | 50% | 100% | 100% | 100% | 80% | 90% | 60% | 90% | 100% | 90% | 70% | –
13 | C=Cc1c(N)nc(-c2ccc(OC(F)(F)F)cc2)nc1C(=O)OC [Compound 47-61, 4-Amino-5-ethenyl-6-methoxycarbonyl-2-(4-trifluoromethoxy-phenyl)-pyrimidine] | 0% | 0% | 0% | 0% | 0% | 0% | 10% | 10% | 10% | 100% | 70% | 10% | –
